Drawing on PubChem BioAssay (NCI), this text covers GI50 and TGI for ten molecules.

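Step 1: Grow cells in 96-well plates. Step 2: Expose to compound for 48 hours at 5 concentrations. Step 3: Interpolate endpoints linearly; if unreached, use highest concentration. The concentration for 50% growth inhibition is given as GI50. The concentration for full growth arrest is given as TGI.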

Test systems include HT29 colon; NCI-H23 lung; NCI-H460 lung; NCI/ADR-RES ovarian; OVCAR-4 ovarian; SF-539 CNS; SK-MEL-2 melanoma; SK-MEL-28 melanoma; SW-620 colon; UACC-257 melanoma.
Assay in all cases: NCI-60 cell line screen, 48 h

Turning to `COc1cnc2c(c1)C(=O)c1c-2n(CCCN2CCC(O)CC2)c(=O)c2cc(Cl)ccc12`, the GI50 in the experiment with HT29 colon is 0.59 µM; in the experiment on NCI-H23 lung, 0.248 µM; in the experiment with NCI-H460 lung, 0.0371 µM; with NCI/ADR-RES ovarian it was 0.167 µM; in the experiment with OVCAR-4 ovarian, 1.34 µM; with SF-539 CNS it was 0.433 µM. Also, the GI50 is 17.4 µM in the experiment on SK-MEL-2 melanoma, 16.7 µM in the experiment on SK-MEL-28 melanoma, 0.253 µM in the experiment with SW-620 colon and 12.2 µM in the experiment with UACC-257 melanoma. Moreover, the TGI in the experiment with HT29 colon is 2.43 µM; in the experiment with NCI-H23 lung, 1.74 µM; with NCI-H460 lung it was 1.27 µM; in the experiment on NCI/ADR-RES ovarian it was 2.31 µM; in the experiment with OVCAR-4 ovarian, 3.08 µM; in the experiment on SF-539 CNS, 1.64 µM. In addition, the TGI with SK-MEL-2 melanoma stood at 33.4 µM; with SK-MEL-28 melanoma it was 35.7 µM; with SW-620 colon, 2.62 µM; in the experiment with UACC-257 melanoma, 26.2 µM.
With `CC(=O)Nc1n[n+]([O-])c2cc(C)ccc2[n+]1[O-]`, the TGI with HT29 colon was 13.4 µM; in the experiment on NCI-H23 lung, 9.32 µM; in the experiment on NCI-H460 lung, 2.14 µM; with NCI/ADR-RES ovarian it was over 44.7 µM; in the experiment with OVCAR-4 ovarian it was 18 µM; with SF-539 CNS, 5.36 µM. Further, the TGI in the experiment on SK-MEL-2 melanoma amounted to 26.5 µM; in the experiment on SK-MEL-28 melanoma, 44.2 µM; with SW-620 colon, 17.5 µM; in the experiment with UACC-257 melanoma, 18.7 µM.
In the case of `CCN1C(=NCCO)NS(=O)(=O)c2ccccc21`, the TGI with HT29 colon, with NCI-H23 lung, in the experiment with NCI-H460 lung, with NCI/ADR-RES ovarian, in the experiment on OVCAR-4 ovarian and in the experiment on SF-539 CNS was over 100 µM throughout. Also, the TGI in the experiment on SK-MEL-2 melanoma, in the experiment on SK-MEL-28 melanoma, in the experiment with SW-620 colon and in the experiment on UACC-257 melanoma was over 100 µM each time.
Take `O=Cc1ccc(-c2ccc(-c3nc4ccccc4s3)cc2)s1`: the GI50 in the experiment on HT29 colon is 77.3 µM; in the experiment on NCI-H23 lung it was 84.2 µM; in the experiment on NCI-H460 lung, 83.5 µM; in the experiment with NCI/ADR-RES ovarian it was 40.8 µM; in the experiment with OVCAR-4 ovarian, over 100 µM; in the experiment with SF-539 CNS, 30.7 µM. Besides, the GI50 was over 100 µM with SK-MEL-2 melanoma, over 100 µM in the experiment on SK-MEL-28 melanoma, 56.4 µM with SW-620 colon and over 100 µM in the experiment on UACC-257 melanoma. The TGI in the experiment with HT29 colon, with NCI-H23 lung, with NCI-H460 lung, in the experiment on NCI/ADR-RES ovarian, in the experiment on OVCAR-4 ovarian and with SF-539 CNS was over 100 µM in each case. Besides, the TGI in the experiment on SK-MEL-2 melanoma, in the experiment with SK-MEL-28 melanoma, in the experiment with SW-620 colon and with UACC-257 melanoma was over 100 µM throughout.
For the molecule `CCOC(=O)Nc1cc2ccccc2c(N=Nc2ccccc2)c1O`, the TGI was over 100 µM in the experiment with HT29 colon; over 100 µM in the experiment on NCI-H23 lung; over 100 µM in the experiment with NCI-H460 lung; over 100 µM with NCI/ADR-RES ovarian; 49.3 µM with OVCAR-4 ovarian; 35.8 µM in the experiment with SF-539 CNS. The TGI in the experiment on SK-MEL-2 melanoma, in the experiment on SK-MEL-28 melanoma, with SW-620 colon and in the experiment with UACC-257 melanoma was over 100 µM each time.
Regarding `CC(C)(C)N/N=C(\C(=O)NC1=C(Cl)C(=O)c2ccccc2C1=O)C1C=CCS1(=O)=O` (stereo not given), the TGI was found to be 29.3 µM in the experiment on HT29 colon; 24.2 µM with NCI-H23 lung; 22 µM in the experiment with NCI-H460 lung; 71.9 µM in the experiment with NCI/ADR-RES ovarian; 30.7 µM with OVCAR-4 ovarian; 54.2 µM with SF-539 CNS. Besides, the TGI is 24.9 µM with SK-MEL-2 melanoma, over 100 µM in the experiment with SK-MEL-28 melanoma, over 100 µM in the experiment on SW-620 colon and 26.5 µM in the experiment with UACC-257 melanoma.
For `COc1cc(Cl)cc(-c2nn(-c3cccc(NC(=O)Nc4ccc(Cl)c(Cl)c4)c3)cc2-c2ccncc2)c1`, the GI50 was 2.38 µM in the experiment on HT29 colon; 2.62 µM in the experiment on NCI-H23 lung; 2.27 µM in the experiment on NCI-H460 lung; 2.34 µM with NCI/ADR-RES ovarian; 2.85 µM with OVCAR-4 ovarian; 2.6 µM in the experiment with SF-539 CNS. The GI50 was 1.64 µM in the experiment with SK-MEL-2 melanoma, 2.96 µM in the experiment on SK-MEL-28 melanoma, 3.43 µM with SW-620 colon and 1.84 µM in the experiment with UACC-257 melanoma. Moreover, the TGI came out at 9.07 µM with HT29 colon; 9.04 µM in the experiment on NCI-H23 lung; 13.9 µM in the experiment on NCI-H460 lung; 24.9 µM with NCI/ADR-RES ovarian; 53.8 µM in the experiment on OVCAR-4 ovarian; 13.2 µM in the experiment with SF-539 CNS. Also, the TGI was 3.74 µM with SK-MEL-2 melanoma, 36.8 µM in the experiment with SK-MEL-28 melanoma, over 100 µM with SW-620 colon and 5.19 µM with UACC-257 melanoma.
Consider `Cc1cccc2c3c(sc12)C(c1ccc(F)cc1)C(C#N)=C(N)O3` (stereo not given), for which the GI50 with HT29 colon is 0.313 µM; in the experiment on NCI-H23 lung, 0.127 µM; with NCI-H460 lung, 0.0537 µM; in the experiment on NCI/ADR-RES ovarian, 0.0446 µM; in the experiment on OVCAR-4 ovarian it was 0.528 µM; with SF-539 CNS it was 0.0473 µM. Moreover, the GI50 in the experiment on SK-MEL-2 melanoma is 1.7 µM; in the experiment with SK-MEL-28 melanoma, 1.97 µM; with SW-620 colon, 0.044 µM; in the experiment with UACC-257 melanoma, 10.6 µM. For the same molecule, the TGI with HT29 colon turned out to be 8.4 µM; in the experiment with NCI-H23 lung it was 12 µM; in the experiment with NCI-H460 lung, 2.52 µM; in the experiment on NCI/ADR-RES ovarian, 4.14 µM; in the experiment with OVCAR-4 ovarian, 17.1 µM; in the experiment on SF-539 CNS it was 0.679 µM. Moreover, the TGI with SK-MEL-2 melanoma is 21.6 µM; in the experiment with SK-MEL-28 melanoma, 20.7 µM; with SW-620 colon it was 14.2 µM; in the experiment on UACC-257 melanoma, 36.8 µM.
In the case of `C/C(=N\NC(=S)N1CCCCCC1)c1cccc2cccnc12`, the TGI with HT29 colon is 19.1 µM; in the experiment with NCI-H23 lung, 15.5 µM; with NCI-H460 lung, over 100 µM; in the experiment on NCI/ADR-RES ovarian it was 5.42 µM; in the experiment on OVCAR-4 ovarian it was over 21.4 µM; in the experiment on SF-539 CNS it was 5.65 µM. Besides, the TGI was over 100 µM with SK-MEL-2 melanoma, over 66.4 µM in the experiment with SK-MEL-28 melanoma, over 100 µM in the experiment on SW-620 colon and over 31.1 µM with UACC-257 melanoma.
Take `Cc1ccc(C2NC(=O)c3ccccc3N2)c(C)c1` (stereo not given): the TGI in the experiment on HT29 colon was 34.9 µM; in the experiment with NCI-H23 lung, over 87 µM; in the experiment with NCI-H460 lung it was over 100 µM; with NCI/ADR-RES ovarian, 6.5 µM; in the experiment with OVCAR-4 ovarian it was over 59.7 µM; in the experiment on SF-539 CNS, 5.15 µM. Further, the TGI in the experiment with SK-MEL-2 melanoma was 37.8 µM; in the experiment on SK-MEL-28 melanoma it was over 100 µM; with SW-620 colon it was over 100 µM; in the experiment with UACC-257 melanoma, over 100 µM.
